Six compounds from ChEMBL document CHEMBL1201862, “PubChem BioAssay data set” (2004) can be followed below.

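In this assay, cells in 96-well plates receive the compound at five concentrations for 48 hours. Endpoints are linearly interpolated between the surrounding concentrations. Abbreviation: GI50, concentration required for 50% inhibition of growth.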 The source made the active and inactive calls. Rule as the data show it: active = GI50 up to about 1.1 µM and inactive = higher.

Common to all, as to experiment: growth of human tumour cells (NCI), 48 h
Assay [1] deals with ACHN.
Assay [2] has as its system DU-145.
Assay [3] has as its system EKVX.
Assay [4] has as its system HCC 2998.
For assay [5], the system named is HCT-116.
Assay [6] relates to HOP-92.
Assay [7] has as its system HT-29.
Assay [8] has as its system KM12.
Assay [9] relates to MCF7.
Assay [10] deals with NCI-H226.
The subject of assay [11] is NCI-H460.
For assay [12], the system named is OVCAR-3.
For assay [13], the system named is OVCAR-5.
For assay [14], the system named is SF-295.
For assay [15], the system named is SF-539.
For assay [16], the system named is SK-MEL-5.
In assay [17] the test system is SNB-75.
Assay [18] deals with SR.
Assay [19] has as its system TK-10.
The subject of assay [20] is UACC-257.

As to `Cc1cc2c3c([nH]c2c2ccnc(C)c12)CCCC3`, the GI50 was 4.1 µM (inactive) in assay [1]; 3.23 µM (inactive) in [2]; 2.07 µM (inactive) in [3]; 1.95 µM (inactive) in assay [4]; 1.82 µM (inactive) in assay [5]; 2.6 µM (inactive) in assay [6]. For the same compound, the GI50 in assay [7] is 2.46 µM (inactive); in assay [8] it was 2.7 µM (inactive); in assay [9] it was 1.43 µM (inactive); in assay [10], 12.1 µM (inactive); in assay [11], 1.94 µM (inactive); in assay [12] it was 2.14 µM (inactive). The GI50 in assay [13] was 3.65 µM (inactive); in assay [14], 2.12 µM (inactive); in assay [15], 1.85 µM (inactive); in [16], 1.55 µM (inactive); in assay [17] it was 1.87 µM (inactive); in assay [18] it was 1.93 µM (inactive). In addition, the GI50 in assay [19] is 2.33 µM (inactive); in assay [20], 1.81 µM (inactive).
As to `O=C1/C(=C/c2ccc(O)cc2)CCC1CNc1ccccc1` (stereo not given), the GI50 in assay [1] was 12.3 µM (inactive); in [2] it was 12.3 µM (inactive); in assay [3] it was 18.3 µM (inactive); in assay [4], 18.8 µM (inactive); in assay [5], 5.64 µM (inactive); in assay [6], 14.4 µM (inactive). Moreover, the GI50 in assay [7] is 11.5 µM (inactive); in [8], 6.65 µM (inactive); in [9], 2.25 µM (inactive); in assay [10] it was 17.9 µM (inactive); in [11] it was 26.3 µM (inactive); in assay [12], 14.6 µM (inactive). Further, the GI50 in assay [13] is 17.7 µM (inactive); in assay [14], 15.9 µM (inactive); in assay [15], 16.1 µM (inactive); in [16] it was 16.8 µM (inactive); in [17], 26.2 µM (inactive); in assay [18], 1.74 µM (inactive). In addition, the GI50 in assay [19] is 10.2 µM (inactive); in assay [20], 16.7 µM (inactive).
For `CC1=C(N2CC2)C(=O)c2nc3n(c2C1=O)CCC3OC(=O)CCl` (stereo not given), the GI50 was 0.047 µM (active) in assay [1]; 0.021 µM (active) in [2]; 0.217 µM (active) in assay [3]; 0.0395 µM (active) in assay [4]; 0.0418 µM (active) in [5]; 3.3 µM (inactive) in assay [6]. In addition, the GI50 in [7] was 0.0902 µM (active); in [8] it was 0.0377 µM (active); in assay [9], < 0.01 µM (active); in assay [10] it was 0.064 µM (active); in assay [11] it was 0.0183 µM (active); in [12], 0.0771 µM (active). For the same compound, the GI50 in assay [13] is 0.0692 µM (active); in [14] it was 0.0373 µM (active); in assay [15] it was 0.056 µM (active); in [16] it was 0.0428 µM (active); in [17] it was 0.0221 µM (active); in assay [18], 0.225 µM (active). Also, the GI50 in [19] is 0.13 µM (active); in assay [20], 0.0883 µM (active).
Regarding `Nc1nc(O)c(Br)c(-c2cccc([N+](=O)[O-])c2)n1`, the GI50 in [1] was > 67.9 µM (inactive); in [2] it was > 100 µM (inactive); in assay [3] it was > 100 µM (inactive); in [4], > 100 µM (inactive); in assay [5] it was > 100 µM (inactive); in [6], > 76 µM (inactive). In addition, the GI50 in assay [7] is > 100 µM (inactive); in assay [8] it was > 100 µM (inactive); in assay [9] it was > 49.2 µM (inactive); in [10], 49.9 µM (inactive); in assay [11] it was > 81.8 µM (inactive); in [12], > 100 µM (inactive). Also, the GI50 in [13] was > 69.8 µM (inactive); in [14] it was > 50.4 µM (inactive); in assay [15], > 58.1 µM (inactive); in assay [16] it was > 59.6 µM (inactive); in [17] it was 55 µM (inactive); in assay [18], 64 µM (inactive). Moreover, the values for the GI50 in assay [19] and in [20] were > 100 µM (inactive) and > 55 µM (inactive), respectively.
As to `CN(C)Cc1cc(C(=O)/C=C/c2c(Cl)cccc2Cl)cc(CN(C)C)c1O`, the GI50 in [1] is 2.8 µM (inactive); in assay [2] it was 8.2 µM (inactive); in assay [3], 10.9 µM (inactive); in [4], 19 µM (inactive); in assay [5] it was 6.04 µM (inactive); in assay [6] it was 3.05 µM (inactive). The GI50 is 3.07 µM (inactive) in assay [7]; 2.65 µM (inactive) in assay [8]; 3.71 µM (inactive) in assay [9]; 14.4 µM (inactive) in assay [10]; 3.72 µM (inactive) in assay [11]; 5.7 µM (inactive) in [12]. Further, the GI50 was 18.2 µM (inactive) in assay [13]; 8.51 µM (inactive) in [14]; 14.5 µM (inactive) in assay [15]; 3.76 µM (inactive) in [16]; 3.34 µM (inactive) in [17]; 3.18 µM (inactive) in assay [18]. The GI50 in assay [19] was 14.4 µM (inactive); in assay [20], 4.46 µM (inactive).
As for `CO[C@H]1Nc2c(ccc(C)c2O)C(=O)N2C=C(/C=C/C(N)=O)C[C@@H]12` [ANTHRAMYCIN METHYL ETHER], the GI50 is 0.0181 µM (active) in assay [1]; 0.0377 µM (active) in [2]; 0.0462 µM (active) in assay [3]; 0.0436 µM (active) in assay [4]; 0.0382 µM (active) in assay [5]; 0.0258 µM (active) in assay [6]. Further, the GI50 in assay [7] was 0.0256 µM (active); in assay [8], 0.0303 µM (active); in assay [9] it was 0.0389 µM (active); in assay [10], 0.128 µM (active); in [11], 0.0322 µM (active); in [12], 0.0516 µM (active). The GI50 in assay [13] is 0.0541 µM (active); in assay [14], 0.0199 µM (active); in assay [15], 0.0185 µM (active); in [16] it was 0.0168 µM (active); in assay [17], 0.0228 µM (active); in assay [18] it was < 0.0234 µM (active). The figures for the GI50 in assay [19] and in assay [20] were 0.0585 µM (active) and 0.0596 µM (active), respectively.
